Measured values as given in paper PMC12748989 (Nature Communications, 2025).

Experiments:
PBMC = conditions: 12.5 µM

| Compound | Average (percentage cell inhibition), Dmastoparan MDA-MB231 12.5uM (MDA-MB-231 cells) | Average (percentage cell inhibition), Mastoparan PBMC (PBMC) |
| --- | --- | --- |
| CC[C@H](C)[C@H](N)C(=O)N[C@@H](CC(N)=O)C(=O)N[C@@H](CC(C)C)C(=O)N[C@@H](CCCCN)C(=O)N[C@@H](C)C(=O)N[C@@H](CC(C)C)C(=O)N[C@@H](C)C(=O)N[C@@H](C)C(=O)N[C@@H](C)C(=O)N[C@@H](C)C(=O)N[C@@H](CCCCN)C(=O)N[C@@H](CCCCN)C(=O)N[C@H](C(=O)N[C@@H](CC(C)C)C(N)=O)[C@@H](C)CC [A9] | 23.1985% | -3.746% |
| CC[C@H](C)[C@H](NC(=O)[C@H](CCCCN)NC(=O)[C@H](CCCCN)NC(=O)[C@H](C)NC(=O)[C@H](CC(C)C)NC(=O)[C@H](C)NC(=O)[C@H](C)NC(=O)[C@H](CC(C)C)NC(=O)[C@H](C)NC(=O)[C@H](CCCCN)NC(=O)[C@H](CC(C)C)NC(=O)[C@H](CC(N)=O)NC(=O)[C@@H](N)CCC(N)=O)C(=O)N[C@@H](CC(C)C)C(N)=O [Q1] | 44.2177% | 13.6421% |
| CC[C@H](C)[C@H](N)C(=O)N[C@@H](CC(N)=O)C(=O)N[C@@H](CC(C)C)C(=O)N[C@@H](CCCCN)C(=O)N[C@@H](C)C(=O)N[C@@H](CC(C)C)C(=O)N[C@@H](CCCCN)C(=O)N[C@@H](C)C(=O)N[C@@H](CC(C)C)C(=O)N[C@@H](C)C(=O)N[C@@H](CCCCN)C(=O)N[C@@H](CCCCN)C(=O)N[C@H](C(=O)N[C@@H](CC(C)C)C(N)=O)[C@@H](C)CC [K7] | 38.2404% | 5.806% |
| CC[C@H](C)[C@H](NC(=O)[C@H](CCCCN)NC(=O)[C@H](CCCCN)NC(=O)[C@H](C)NC(=O)[C@H](CC(C)C)NC(=O)[C@H](C)NC(=O)[C@H](C)NC(=O)[C@H](CC(C)C)NC(=O)[C@H](C)NC(=O)[C@H](CCCCN)NC(=O)[C@H](CC(C)C)NC(=O)[C@H](CC(N)=O)NC(=O)[C@@H](N)CC(N)=O)C(=O)N[C@@H](CC(C)C)C(N)=O [N1] | 25.1532% | 8.003% |
| CC[C@H](C)[C@H](N)C(=O)N[C@@H](CC(N)=O)C(=O)N[C@@H](CC(C)C)C(=O)N[C@@H](CCCCN)C(=O)N[C@@H](C)C(=O)N[C@@H](CC(C)C)C(=O)N[C@@H](C)C(=O)N1CCC[C@H]1C(=O)N[C@@H](CC(C)C)C(=O)N[C@@H](C)C(=O)N[C@@H](CCCCN)C(=O)N[C@@H](CCCCN)C(=O)N[C@H](C(=O)N[C@@H](CC(C)C)C(N)=O)[C@@H](C)CC [P8] | 8.428% | -8.536% |
| CC[C@H](C)[C@H](N)C(=O)N[C@@H](CC(N)=O)C(=O)N[C@@H](CC(C)C)C(=O)N[C@@H](CCCCN)C(=O)N[C@@H](C)C(=O)N[C@@H](CC(C)C)C(=O)N[C@@H](C)C(=O)N[C@@H](C)C(=O)N[C@@H](Cc1c[nH]cn1)C(=O)N[C@@H](C)C(=O)N[C@@H](CCCCN)C(=O)N[C@@H](CCCCN)C(=O)N[C@H](C(=O)N[C@@H](CC(C)C)C(N)=O)[C@@H](C)CC [H9] | 18.6976% | -4.349% |
| CC[C@H](C)[C@H](N)C(=O)N[C@@H](CC(N)=O)C(=O)N[C@@H](CC(C)C)C(=O)N[C@@H](CCCCN)C(=O)N[C@@H](C)C(=O)N[C@@H](CC(C)C)C(=O)N[C@@H](C)C(=O)N[C@@H](C)C(=O)N[C@@H](CC(C)C)C(=O)N[C@@H](C)C(=O)N[C@@H](CCCCN)C(=O)N[C@@H](CCCCN)C(=O)N[C@H](C(=O)NCC(N)=O)[C@@H](C)CC [G14] | 28.3643% | 3.069% |
| CC[C@H](C)[C@H](N)C(=O)N[C@@H](CC(N)=O)C(=O)N[C@@H](CC(C)C)C(=O)N[C@@H](Cc1c[nH]cn1)C(=O)N[C@@H](C)C(=O)N[C@@H](CC(C)C)C(=O)N[C@@H](C)C(=O)N[C@@H](C)C(=O)N[C@@H](CC(C)C)C(=O)N[C@@H](C)C(=O)N[C@@H](CCCCN)C(=O)N[C@@H](CCCCN)C(=O)N[C@H](C(=O)N[C@@H](CC(C)C)C(N)=O)[C@@H](C)CC [H4] | 21.387% | -2.6725% |
| CC[C@H](C)[C@H](N)C(=O)N[C@@H](CC(N)=O)C(=O)N[C@@H](CC(C)C)C(=O)N[C@@H](CCCCN)C(=O)N[C@@H](C)C(=O)N[C@@H](CC(C)C)C(=O)N[C@@H](C)C(=O)N[C@@H](C)C(=O)N[C@@H](CC(C)C)C(=O)N[C@@H](CC(C)C)C(=O)N[C@@H](CCCCN)C(=O)N[C@@H](CCCCN)C(=O)N[C@H](C(=O)N[C@@H](CC(C)C)C(N)=O)[C@@H](C)CC [L10] | 86.3514% | 52.7294% |
| CC[C@H](C)[C@H](N)C(=O)N[C@@H](CC(N)=O)C(=O)N[C@@H](CC(C)C)C(=O)N[C@@H](CCCCN)C(=O)N[C@@H](C)C(=O)N[C@@H](CC(C)C)C(=O)N[C@@H](C)C(=O)N[C@@H](CC(N)=O)C(=O)N[C@@H](CC(C)C)C(=O)N[C@@H](C)C(=O)N[C@@H](CCCCN)C(=O)N[C@@H](CCCCN)C(=O)N[C@H](C(=O)N[C@@H](CC(C)C)C(N)=O)[C@@H](C)CC [N8] | 46.3177% | 16.8851% |
| CC[C@H](C)[C@H](N)C(=O)N[C@@H](CC(N)=O)C(=O)N[C@@H](CC(C)C)C(=O)N[C@@H](CCCCN)C(=O)N[C@@H](C)C(=O)N[C@@H](CC(N)=O)C(=O)N[C@@H](C)C(=O)N[C@@H](C)C(=O)N[C@@H](CC(C)C)C(=O)N[C@@H](C)C(=O)N[C@@H](CCCCN)C(=O)N[C@@H](CCCCN)C(=O)N[C@H](C(=O)N[C@@H](CC(C)C)C(N)=O)[C@@H](C)CC [N6] | 7.402% | 6.768% |
| CC[C@H](C)[C@H](N)C(=O)N[C@@H](CC(N)=O)C(=O)N[C@@H](CC(C)C)C(=O)N[C@@H](CCCCN)C(=O)N[C@@H](C)C(=O)N[C@@H](CC(C)C)C(=O)N[C@@H](C)C(=O)N[C@@H](C)C(=O)N[C@@H](Cc1c[nH]c2ccccc12)C(=O)N[C@@H](C)C(=O)N[C@@H](CCCCN)C(=O)N[C@@H](CCCCN)C(=O)N[C@H](C(=O)N[C@@H](CC(C)C)C(N)=O)[C@@H](C)CC [W9] | 26.5648% | 6.531% |
| CC[C@H](C)[C@H](N)C(=O)N[C@@H](CC(N)=O)C(=O)N[C@@H](CC(C)C)C(=O)N[C@@H](CCCCN)C(=O)N[C@@H](C)C(=O)N[C@@H](CO)C(=O)N[C@@H](C)C(=O)N[C@@H](C)C(=O)N[C@@H](CC(C)C)C(=O)N[C@@H](C)C(=O)N[C@@H](CCCCN)C(=O)N[C@@H](CCCCN)C(=O)N[C@H](C(=O)N[C@@H](CC(C)C)C(N)=O)[C@@H](C)CC [S6] | 29.7699% | -17.608% |
| CC[C@H](C)[C@H](N)C(=O)N[C@@H](CC(N)=O)C(=O)N[C@@H](CC(C)C)C(=O)N[C@@H](CCCCN)C(=O)N[C@@H](C)C(=O)N[C@@H](CC(C)C)C(=O)N[C@@H](C)C(=O)NCC(=O)N[C@@H](CC(C)C)C(=O)N[C@@H](C)C(=O)N[C@@H](CCCCN)C(=O)N[C@@H](CCCCN)C(=O)N[C@H](C(=O)N[C@@H](CC(C)C)C(N)=O)[C@@H](C)CC [G8] | 28.4057% | 1.421% |
| CC[C@H](C)[C@H](N)C(=O)N[C@@H](CC(N)=O)C(=O)N[C@@H](CC(C)C)C(=O)N[C@@H](CCCCN)C(=O)N[C@@H](C)C(=O)N[C@@H](CC(C)C)C(=O)N[C@@H](C)C(=O)N[C@@H](C)C(=O)N[C@@H](CC(C)C)C(=O)N[C@@H](C)C(=O)N[C@@H](CCCCN)C(=O)N[C@H](C(=O)N[C@H](C(=O)N[C@@H](CC(C)C)C(N)=O)[C@@H](C)CC)[C@@H](C)CC [I12] | 44.3343% | 20.8332% |
| CC[C@H](C)[C@H](N)C(=O)N[C@@H](CC(N)=O)C(=O)N[C@@H](CC(C)C)C(=O)N[C@@H](CCCCN)C(=O)N[C@@H](Cc1c[nH]cn1)C(=O)N[C@@H](CC(C)C)C(=O)N[C@@H](C)C(=O)N[C@@H](C)C(=O)N[C@@H](CC(C)C)C(=O)N[C@@H](C)C(=O)N[C@@H](CCCCN)C(=O)N[C@@H](CCCCN)C(=O)N[C@H](C(=O)N[C@@H](CC(C)C)C(N)=O)[C@@H](C)CC [H5] | 26.5106% | 3.516% |
| CC[C@H](C)[C@H](N)C(=O)N[C@@H](CC(N)=O)C(=O)N[C@@H](CC(C)C)C(=O)N[C@@H](CCCCN)C(=O)N[C@@H](C)C(=O)N[C@@H](CC(C)C)C(=O)N1CCC[C@H]1C(=O)N[C@@H](C)C(=O)N[C@@H](CC(C)C)C(=O)N[C@@H](C)C(=O)N[C@@H](CCCCN)C(=O)N[C@@H](CCCCN)C(=O)N[C@H](C(=O)N[C@@H](CC(C)C)C(N)=O)[C@@H](C)CC [P7] | -0.6456% | -9.322% |
| CC[C@H](C)[C@H](N)C(=O)N[C@@H](CC(N)=O)C(=O)N[C@@H](CC(C)C)C(=O)N[C@@H](Cc1ccc(O)cc1)C(=O)N[C@@H](C)C(=O)N[C@@H](CC(C)C)C(=O)N[C@@H](C)C(=O)N[C@@H](C)C(=O)N[C@@H](CC(C)C)C(=O)N[C@@H](C)C(=O)N[C@@H](CCCCN)C(=O)N[C@@H](CCCCN)C(=O)N[C@H](C(=O)N[C@@H](CC(C)C)C(N)=O)[C@@H](C)CC [Y4] | 34.4143% | 3.789% |
| CC[C@H](C)[C@H](N)C(=O)N[C@@H](CC(N)=O)C(=O)N[C@@H](CC(C)C)C(=O)N[C@@H](CCCCN)C(=O)N[C@@H](C)C(=O)N[C@@H](CC(C)C)C(=O)N[C@@H](CCCNC(=N)N)C(=O)N[C@@H](C)C(=O)N[C@@H](CC(C)C)C(=O)N[C@@H](C)C(=O)N[C@@H](CCCCN)C(=O)N[C@@H](CCCCN)C(=O)N[C@H](C(=O)N[C@@H](CC(C)C)C(N)=O)[C@@H](C)CC [R7] | 35.9182% | 3.182% |
